Values belong to the compound of their own block, whether it stands above or below them.
Target: human GLP1R (hGLP1R) (Homo sapiens, UniProt P43220)
Experiment: Human GLP1R cAMP agonist assay (GloSensor cAMP Assay)
Assay type: cell-based
Details: HEK293-SNAP-hGLP1R-GloSensor cells; for Emax: cAMP activity as percent of GLP1 (7-36) EC100 control; for EC50: intracellular cAMP, 12 min at rt
Method: Compounds of formula (I) according to the invention were tested in the following cellular assays that measure the intracellular cAMP concentration, beta-arrestin recruitment and receptor internalization. The cAMP is generated by the activation of GLP1R. The extent to which the GLP1R is internalized into the cell and away from the plasma membrane following activation is also shown in Table 2. EC50 for each assay is defined as the concentration of the compound that leads to half of the maximum response (after baseline correction). Emax is defined as the maximum response observed for the test compound, normalized to the maximum response observed for the endogenous ligand (GLP1(7-36)) to GLP1R.
Human GLP1R cAMP Agonist Assay
The agonist activity of compounds was determined using the GloSensor™ cAMP Assay (Promega Corp.), which measures changes in the intracellular concentration of cAMP after ligand activation of GPCRs. The assay uses a biosensor encoded by pGloSensor™-22F cAMP plasmid (Promega, cat #E2301) with cAMP binding domains fused to a mutant form of Photinus pyralis luciferase. Binding to cAMP causes conformational changes that promote large increases in light output, which can be measured by a luminescence detector. HEK293-SNAP-hGLP1R-GloSensor cells stably overexpressing the human GLP1 receptor (hGLP1R) and pGloSensor™-22F were seeded in white 384-well poly-D-Lysine coated plates (Greiner Bio One, cat #781945) in CO2-independent media (Gibco cat #18045-088 with 1.0% FBS, 2 mM L-glutamine, penicillin and streptomycin) and incubated overnight at 37° C., 5% CO2 with humidity. The assay was started the following morning by adding an equal volume of CO2-independent media containing 4% v/v dilution of the GloSensor substrate (Promega, cat #E1291) to all wells. The cell plate was incubated at rt for 2 h in the dark. The Biomek 7 (Beckman Coulter) instrument was used for the liquid handling steps. To generate duplicate dose response curves, 3-fold serially diluted compounds were added in to the cell assay plate to a final volume of 60 μL with final concentrations ranging from 30 μM through 0.06 μM in CO2-independent media containing 0.1% BSA, 0.5 mM IBMX and 0.4% DMSO. In the same plate and assay buffer as the tested compounds, were EC100 control wells containing GLP1 (7-36) peptide (Bachem, cat #H-6795) at a final concentration of 2 nM and also EC0 control wells containing no peptide. This plate was incubated at rt in the dark for 12 min after adding the compounds to the cells. Luminescence was then measured with an Envision 2104 Multilabel reader with “TRF Light Unit, 337 nm” (PerkinElmer) using the Ultra-Sensitive protocol setting “384-well US luminescence detector” with the 384-well luminescence aperture, 0.1 seconds per well. cAMP activity was calculated as percent of the GLP1 (7-36) EC100 control wells: [(sample signal−mean EC0 signal)/(mean EC100 of GLP1 (7-36) signal−mean EC0 signal)}*100. Curve fitting for EC50 determinations was performed in the Helios module of the software package DAVID. The 4-parameter logistic model, Hill slope was used: y=Ainf+(A0−Ainf)/(1+(x/AC50)^Hill Slope) where y is the functional response; x is the compound concentration; A0 is the minimum value (at 0 dose); Ainf is the maximum value (at infinite dose); AC50 corresponds to the point of inflection (i.e. the point on the sigmoid shaped curve halfway between A0 and Ainf). The EC50 value was represented by the AC50 value calculated from Helios in μM. Emax is the maximal activity detected within the concentration range, derived from the fitted curve.
327 μL of Opti-MEM medium (Gibco, cat #31985-062) were mixed with 12 μL of FuGENE® HD (Promega, cat #E2311) and incubated at rt for 5 min. Then 8.2 μL (4 μg, 0.485 μg/μL solution) of pSNAP-hGLP1R plasmid (Cisbio, cat #PSNAP-GLP1) encoding human GLP1R (NCBI Reference Sequence: NM_002062.3) fused with Cisbio's SNAP tag was added in to the Fugene HD/Opti-MEM mix, and incubated at rt for 20 min. […]

human GLP1R (hGLP1R), sequence (P43220 24-463): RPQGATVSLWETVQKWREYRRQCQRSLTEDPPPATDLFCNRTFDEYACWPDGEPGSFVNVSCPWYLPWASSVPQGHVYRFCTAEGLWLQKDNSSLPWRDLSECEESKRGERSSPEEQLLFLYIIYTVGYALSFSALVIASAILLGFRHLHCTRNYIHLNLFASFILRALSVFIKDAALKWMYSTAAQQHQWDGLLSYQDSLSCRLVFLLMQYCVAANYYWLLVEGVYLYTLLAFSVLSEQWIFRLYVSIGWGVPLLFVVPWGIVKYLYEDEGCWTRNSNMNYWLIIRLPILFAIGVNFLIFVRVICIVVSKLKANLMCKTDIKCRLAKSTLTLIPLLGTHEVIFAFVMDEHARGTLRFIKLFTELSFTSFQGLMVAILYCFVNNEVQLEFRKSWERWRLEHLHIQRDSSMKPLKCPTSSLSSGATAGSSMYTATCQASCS

Structure (SMILES): Cc1nc(CN2CCC(c3cccc4c3O[C@@](C)(c3ccc(Cl)cc3F)O4)CC2)n(C[C@H]2CCO2)c1-c1ncc(C(=O)O)o1 [Compound C-2, 2-(2-((4-((S)-2-(4-chloro-2-fluorophenyl)-2-methylbenzo[d][1,3]dioxol-4-yl)piperidin-1-yl)methyl)-4-methyl-1-(((R)-oxetan-2-yl)methyl)-1H-imidazol-5-yl)oxazole-5-carboxylic acid]
Emax: 108%
EC50: 0.149 nM

Structure (SMILES): Cc1nc(CN2CCC(c3cccc4c3O[C@@](C)(c3ccc(Cl)cc3F)O4)CC2)n(C[C@H]2CCO2)c1-c1nc(C(=O)O)co1 [Compound C-3, 2-(2-((4-((S)-2-(4-chloro-2-fluorophenyl)-2-methylbenzo[d][1,3]dioxol-4-yl)piperidin-1-yl)methyl)-4-methyl-1-(((R)-oxetan-2-yl)methyl)-1H-imidazol-5-yl)oxazole-4-carboxylic acid]
Emax: 105%
EC50: 0.0484 nM

Structure (SMILES): CCc1nc(CN2CCC(c3cccc4c3O[C@@](C)(c3ccc(Cl)cc3F)O4)CC2)n(C[C@@H]2CCO2)c1-c1ncc(C(=O)O)o1 [Compound C-6, 2-(2-((4-((S)-2-(4-chloro-2-fluorophenyl)-2-methylbenzo[d][1,3]dioxol-4-yl)piperidin-1-yl)methyl)-4-ethyl-1-(((S)-oxetan-2-yl)methyl)-1H-imidazol-5-yl)oxazole-5-carboxylic acid]
Emax: 123%
EC50: 0.464 nM

Structure (SMILES): CCc1nc(CN2CCC(c3cccc4c3O[C@@](C)(c3ccc(Cl)cc3F)O4)CC2)n(C[C@H]2CCO2)c1-c1ncc(C(=O)O)o1 [Compound C-8, 2-(2-((4-((S)-2-(4-chloro-2-fluorophenyl)-2-methylbenzo[d][1,3]dioxol-4-yl)piperidin-1-yl)methyl)-4-ethyl-1-(((R)-oxetan-2-yl)methyl)-1H-imidazol-5-yl)oxazole-5-carboxylic acid]
Emax: 101%
EC50: 0.353 nM

Structure (SMILES): Cc1nc(CN2CCC(c3cccc4c3O[C@@](C)(c3ccc(C#N)cc3F)O4)CC2)n(C[C@@H]2CCO2)c1-c1nc(C(=O)O)c(C)o1 [Compound C-11, 2-(2-((4-((S)-2-(4-cyano-2-fluorophenyl)-2-methylbenzo[d][1,3]dioxol-4-yl)piperidin-1-yl)methyl)-4-methyl-1-(((S)-oxetan-2-yl)methyl)-1H-imidazol-5-yl)-5-methyloxazole-4-carboxylic acid]
Emax: 105%
EC50: 0.0428 nM

Structure (SMILES): Cc1nc(-c2nc(CN3CCC(c4cccc5c4O[C@@](C)(c4ccc(Cl)cc4F)O5)CC3)n(C[C@@H]3CCO3)c2C)oc1C(=O)O [Compound C-15, 2-(2-((4-((S)-2-(4-chloro-2-fluorophenyl)-2-methylbenzo[d][1,3]dioxol-4-yl)piperidin-1-yl)methyl)-5-methyl-1-(((S)-oxetan-2-yl)methyl)-1H-imidazol-4-yl)-4-methyloxazole-5-carboxylic acid]
Emax: 103%
EC50: 0.112 nM

Now from value to compound:

Emax: 119%
EC50: 0.35 nM
Structure (SMILES): Cc1nc(CN2CCC(c3cccc4c3O[C@@](C)(c3ccc(Cl)cc3F)O4)CC2)n(C[C@@H]2CCO2)c1-c1ccc(C(=O)O)o1 [Compound C-22, 5-(2-((4-((S)-2-(4-chloro-2-fluorophenyl)-2-methylbenzo[d][1,3]dioxol-4-yl)piperidin-1-yl)methyl)-4-methyl-1-(((S)-oxetan-2-yl)methyl)-1H-imidazol-5-yl)furan-2-carboxylic acid]

Emax: 106%
Structure (SMILES): Cc1c(-c2cncc(C(=O)O)c2)nc(CN2CCC(c3cccc4c3O[C@@](C)(c3ccc(Cl)cc3F)O4)CC2)n1C[C@@H]1CCO1 [Compound C-23, 5-(2-((4-((S)-2-(4-chloro-2-fluorophenyl)-2-methylbenzo[d][1,3]dioxol-4-yl)piperidin-1-yl)methyl)-5-methyl-1-(((S)-oxetan-2-yl)methyl)-1H-imidazol-4-yl)nicotinic acid]
